Here are results for 21 compounds from patent US10196390B2, “TYK2 inhibitors and uses thereof” (Nimbus Lakshmi, Inc., priority 2014, dated 2019).

Assay [1] concerns Tyk2-pSTAT4. Briefly: IL-12 induced pSTAT4 in human PBMC. The following applies: read-out: Tyk2-pSTAT4 EC50. Type of assay: cell-based. On the procedure:
Human PBMC are isolated from buffy coat and are stored frozen for assays as needed. Cells for assay are thawed and resuspended in complete media containing serum, then cells are diluted to 1.67 E6 cells/ml so that 120 μl per well is 200,000 cells. 15 μl of compound or DMSO is added to the well at the desired concentrations and incubated at 1 hr at 37 C. 15 μl of stimulus (final concentration of 1.7 ng/mL IL-12) is added for 30 minutes prior to pSTAT4 and total STAT4 analysis using cell lysates prepared and analyzed by MSD reagents as per manufacturer protocol. The final DMSO concentration of compound in the assay is 0.1%.

Assay [2] has as its system JAK2-pSTAT5. Briefly: GM-CSF induced pSTAT5 in human PBMC. It is filed as cell-based. Conditions: read-out: JAK2-pSTAT5 EC50. The procedure:
Human PBMC are isolated from buffy coat and are stored frozen for assays as needed. […] 15 μl of compound or DMSO is added to the well at the desired concentrations and incubated at 1 hr at 37 C. 15 μl of stimulus (final concentration of 1.7 ng/mL IL-12) is added for 30 minutes prior to pSTAT4 and total STAT4 analysis using cell lysates prepared and analyzed by MSD reagents as per manufacturer protocol. The final DMSO concentration of compound in the assay is 0.1%.
Cells are prepared for analysis as in the above procedure and 15 μl of GM-CSF (final concentration 5 ng/mL) is added for 20 minutes prior to pSTAT5 and total STAT5 analysis using cell lysates prepared and analyzed by MSD reagents as per manufacturer protocol. The final DMSO concentration of compound in the assay is 0.1%.

For assay [3], the target named is TYK2 (Homo sapiens (Human), UniProt P29597). Put plainly: Tyk2 activity inhibition assay (radioactive kinase assay / Caliper assay). It is filed as biochemical. In a few lines: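 Radiometric format: TYK2 with peptide substrate (20 μM) and 33P-ATP at 10 μM in HEPES pH 7.5, 1% DMSO, 120 min at room temp, P81 paper capture. Caliper mobility-shift format: TYK2 9.75 nM, peptide 30 at 3 uM, ATP 16 uM (also 1 mM), 25 min at 28° C.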

The target of assay [4] is JAK2 (Homo sapiens (Human), UniProt O60674). Put plainly: JAK2 activity inhibition assay (radioactive kinase assay / Caliper assay). It is filed as biochemical. Conditions: read-out: JAK2 Ki. In a few lines: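 Mobility-shift (Caliper) read-out of phosphorylated peptide substrate. Compound diluted in 25 mM HEPES pH 7.5, 0.01% Brij-35, 0.01% Triton, 0.5 mM EGTA; enzyme added, then peptide plus ATP in 10 mM MgCl2. Incubated 25 min at 28° C, stopped with EDTA buffer.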

Where [5] appears, read: IL-12 induced pSTAT4, human PBMC.
Setting [6] is: GM-CSF induced pSTAT5, human PBMC.

As usually defined, the EC50 is the concentration that produces a half-maximal response. As usually defined, the Ki is a measure of affinity in units of concentration, obtained from inhibition or displacement.

Read-outs that look alike come from different tables or passages of the source.

Chain of JAK2 (O60674 whole entry): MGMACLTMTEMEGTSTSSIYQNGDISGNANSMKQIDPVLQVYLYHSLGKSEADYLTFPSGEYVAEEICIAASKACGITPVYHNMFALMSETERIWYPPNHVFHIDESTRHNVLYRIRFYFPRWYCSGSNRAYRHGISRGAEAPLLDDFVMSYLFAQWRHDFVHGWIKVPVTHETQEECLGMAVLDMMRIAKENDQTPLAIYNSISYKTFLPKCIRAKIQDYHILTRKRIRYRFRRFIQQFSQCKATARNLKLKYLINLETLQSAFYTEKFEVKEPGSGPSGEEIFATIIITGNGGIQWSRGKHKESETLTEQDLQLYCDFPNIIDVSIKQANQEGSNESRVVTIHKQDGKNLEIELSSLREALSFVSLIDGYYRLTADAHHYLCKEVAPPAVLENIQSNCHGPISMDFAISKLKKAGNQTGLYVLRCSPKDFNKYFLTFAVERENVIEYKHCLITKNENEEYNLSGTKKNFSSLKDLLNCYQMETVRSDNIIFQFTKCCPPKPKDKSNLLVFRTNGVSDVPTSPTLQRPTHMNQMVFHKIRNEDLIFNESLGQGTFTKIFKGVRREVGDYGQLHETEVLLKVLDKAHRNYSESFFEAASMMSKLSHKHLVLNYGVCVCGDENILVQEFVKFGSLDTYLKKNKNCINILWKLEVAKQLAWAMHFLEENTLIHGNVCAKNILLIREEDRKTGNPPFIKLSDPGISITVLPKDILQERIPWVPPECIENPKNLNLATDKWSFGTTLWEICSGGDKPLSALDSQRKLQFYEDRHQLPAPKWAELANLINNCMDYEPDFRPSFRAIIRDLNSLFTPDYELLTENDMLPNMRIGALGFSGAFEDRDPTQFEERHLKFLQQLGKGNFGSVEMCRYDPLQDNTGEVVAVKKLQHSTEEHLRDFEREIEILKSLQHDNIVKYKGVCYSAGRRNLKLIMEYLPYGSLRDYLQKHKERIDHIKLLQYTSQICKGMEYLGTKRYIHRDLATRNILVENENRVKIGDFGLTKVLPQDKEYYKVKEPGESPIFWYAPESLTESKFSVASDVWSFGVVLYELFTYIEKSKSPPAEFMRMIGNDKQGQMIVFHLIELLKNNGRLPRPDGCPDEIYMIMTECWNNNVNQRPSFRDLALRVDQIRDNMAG
Chain of TYK2 (P29597 whole entry): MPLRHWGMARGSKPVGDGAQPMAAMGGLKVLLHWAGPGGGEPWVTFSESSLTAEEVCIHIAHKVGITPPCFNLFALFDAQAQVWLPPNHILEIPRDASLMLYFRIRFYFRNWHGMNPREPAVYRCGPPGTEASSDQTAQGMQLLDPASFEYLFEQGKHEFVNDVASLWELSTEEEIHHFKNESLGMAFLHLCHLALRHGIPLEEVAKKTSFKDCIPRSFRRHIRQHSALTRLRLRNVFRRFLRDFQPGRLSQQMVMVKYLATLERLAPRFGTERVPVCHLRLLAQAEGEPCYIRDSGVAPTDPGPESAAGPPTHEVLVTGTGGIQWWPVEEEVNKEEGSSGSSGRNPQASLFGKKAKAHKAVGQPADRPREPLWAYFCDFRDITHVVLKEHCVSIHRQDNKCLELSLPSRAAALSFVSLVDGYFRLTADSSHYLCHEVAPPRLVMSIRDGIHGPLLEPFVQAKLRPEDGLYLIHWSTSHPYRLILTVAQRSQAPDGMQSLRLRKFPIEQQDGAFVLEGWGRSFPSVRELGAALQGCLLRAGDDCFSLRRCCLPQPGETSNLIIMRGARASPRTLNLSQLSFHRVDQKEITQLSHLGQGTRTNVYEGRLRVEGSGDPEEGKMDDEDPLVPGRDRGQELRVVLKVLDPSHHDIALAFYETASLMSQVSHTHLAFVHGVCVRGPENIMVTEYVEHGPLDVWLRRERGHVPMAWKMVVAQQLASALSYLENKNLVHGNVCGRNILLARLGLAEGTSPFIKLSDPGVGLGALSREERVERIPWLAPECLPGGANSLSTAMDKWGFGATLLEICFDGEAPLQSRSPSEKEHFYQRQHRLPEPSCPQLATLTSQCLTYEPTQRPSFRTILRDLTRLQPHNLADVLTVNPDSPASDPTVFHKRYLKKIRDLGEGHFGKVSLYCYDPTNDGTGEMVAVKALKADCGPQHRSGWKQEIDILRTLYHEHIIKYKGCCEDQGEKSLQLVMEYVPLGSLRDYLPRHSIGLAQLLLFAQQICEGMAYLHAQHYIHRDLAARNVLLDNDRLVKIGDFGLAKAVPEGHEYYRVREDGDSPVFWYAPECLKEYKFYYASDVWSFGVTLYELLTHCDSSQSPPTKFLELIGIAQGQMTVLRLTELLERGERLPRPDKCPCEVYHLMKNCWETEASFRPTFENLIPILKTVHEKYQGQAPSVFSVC

In the case of `Cc1ccc(Nc2nc(-c3c(F)cccc3F)nc3c2C(=O)NC3)cc1` [Compound I-21, 2-(2,6-difluorophenyl)-4-(p-tolylamino)-6,7-dihydro-5H-pyrrolo[3,4-d]pyrimidin-5-one], the EC50 in assay [1] (Homo sapiens, PBMC) was < 2000 nM; in assay [2] (Homo sapiens, PBMC), > 20000 nM.
For `O=C1NCc2nc(-c3c(F)cccc3F)cc(Nc3ccc(N4CC5(COC5)C4)cn3)c21` [Compound I-144, 4-((5-(2-oxa-6-azaspiro[3.3]heptan-6-yl)pyridin-2-yl)amino)-2-(2,6-difluorophenyl)-6,7-dihydro-5H-pyrrolo[3,4-b]pyridin-5-one], the inhibition constant Ki in assay [3] and in assay [4] was < 10 nM in each case. Besides, the EC50 in assay [1] (setting [5]) was < 2000 nM.
For `CC[C@@]1(c2ccc(Nc3nc(-c4c(F)cccc4F)nc4c3C(=O)NC4)cc2)CCNC1=O` [Compound I-176, (S)-2-(2,6-difluorophenyl)-4-((4-(3-ethyl-2-oxopyrrolidin-3-yl)phenyl)amino)-6,7-dihydro-5H-pyrrolo[3,4-d]pyrimidin-5-one], the Ki in assay [4] was in the range of 10 to 100 nM. The concentration giving a half-maximal response (EC50) in assay [1] (setting [5]) is < 2000 nM; in assay [2] (setting [6]), 2000 to 20000 nM.
The matching figures for `CC(C)Oc1ccc(Nc2nc(-c3c(F)cccc3F)nc3c2C(=O)NC3)cc1` [Compound I-181, 2-(2,6-difluorophenyl)-4-((4-isopropoxyphenyl)amino)-6,7-dihydro-5H-pyrrolo[3,4-d]pyrimidin-5-one]: 100 to 1000 nM, < 2000 nM and > 20000 nM.
`CCNC(=O)c1ccc(Nc2nc(-c3c(F)cccc3F)nc3c2C(=O)NC3)cc1` [Compound I-195, 4-((2-(2,6-difluorophenyl)-5-oxo-6,7-dihydro-5H-pyrrolo[3,4-d]pyrimidin-4-yl)amino)-N-ethylbenzamide]: the Ki in assay [4] lay within 100 to 1000 nM. The EC50 in assay [1] (Homo sapiens, PBMC) was < 2000 nM; in assay [2] (setting [6]), > 20000 nM.
`O=C1NCc2nc(-c3c(F)cccc3F)cc(Nc3ccc(N4CCCC4)cn3)c21` [Compound I-205, 2-(2,6-difluorophenyl)-4-((5-(pyrrolidin-1-yl)pyridin-2-yl)ami-no)-6,7-dihydro-5H-pyrrolo[3,4-b]pyridin-5-one]: the EC50 in assay [1] (setting [5]) was < 2000 nM; in assay [2] (setting [6]) it was 2000 to 20000 nM.
For `CC1(O)CN(c2ccc(Nc3cc(-c4c(F)cccc4F)nc4c3C(=O)NC4)nc2)C1` [Compound I-228, 2-(2,6-difluorophenyl)-4-((5-(3-hydroxy-3-methylazetidin-1-yl)pyridin-2-yl)amino)-6,7-dihydro-5H-pyrrolo[3,4-b]pyridin-5-one], in assay [4], the inhibition constant (Ki) lay in the range of 10 to 100 nM. In addition, the EC50 in assay [1] (Homo sapiens, PBMC) was < 2000 nM; in assay [2] (setting [6]), 2000 to 20000 nM.
For `O=C1NCc2nc(-c3c(F)cccc3F)cc(Nc3ccc(N4CC(F)(F)C4)cn3)c21` [Compound I-229, 4-((5-(3,3-difluoroazetidin-1-yl)pyridin-2-yl)amino)-2-(2,6-difluorophenyl)-6,7-dihydro-5H-pyrrolo[3,4-b]pyridin-5-one] the same measures were 10 to 100 nM, < 2000 nM and 2000 to 20000 nM.
As for `O=C1NCc2nc(-c3c(F)cccc3F)cc(Nc3ccc(N4CCOCC4)nc3)c21` [Compound I-238, 2-(2,6-difluorophenyl)-4-((6-morpholinopyridin-3-yl)amino)-6,7-dihydro-5H-pyrrolo[3,4-b]pyridin-5-one], the Ki in assay [4] fell in the range of 100 to 1000 nM. Also, the EC50 was < 2000 nM in assay [1] (setting [5]) and > 20000 nM in assay [2] (setting [6]).
For `CC(C)N1CCN(c2ccc(Nc3cc(-c4c(F)cccc4F)nc4c3C(=O)NC4)nc2)C(=O)C1` [Compound I-242, 2-(2,6-difluorophenyl)-4-((5-(4-isopropyl-2-oxopiperazin-1-yl)pyridin-2-yl)amino)-6,7-dihydro-5H-pyrrolo[3,4-b]pyridin-5-one] the same measures were 10 to 100 nM, < 2000 nM and 2000 to 20000 nM.
The matching figures for `CC(C)N1CCN(C(=O)c2ccc(Nc3cc(-c4c(F)cccc4F)nc4c3C(=O)NC4)cc2)CC1` [Compound I-243, 2-(2,6-difluorophenyl)-4-((4-(4-isopropylpiperazine-1-carbo-nyl)phenyl)amino)-6,7-dihydro-5H-pyrrolo[3,4-b]pyridin-5-one]: 10 to 100 nM, < 2000 nM and 2000 to 20000 nM.
As for `O=C1NCc2nc(-c3c(F)cccc3F)cc(Nc3ccc(N4CCN(CC(F)F)CC4)cn3)c21` [Compound I-247, 4-((5-(4-(2,2-difluoroethyl)piperazin-1-yl)pyridin-2-yl)amino)-2-(2,6-difluorophenyl)-6,7-dihydro-5H-pyrrolo[3,4-b]pyridin-5-one], in assay [4], the Ki lay within 10 to 100 nM. Also, the EC50 in assay [1] (setting [5]) and in assay [2] (setting [6]) was < 2000 nM each time.
As to `O=C1NCc2nc(-c3c(F)cccc3F)cc(Nc3ccc(N4CCOCC4=O)cn3)c21` [Compound I-248, 4-(6-((2-(2,6-difluorophenyl)-5-oxo-6,7-dihydro-5H-pyrrolo[3,4-b]pyridin-4-yl)amino)pyridin-3-yl)morpholin-3-one], in assay [4], the inhibition constant Ki was 10 to 100 nM. Besides, the EC50 in assay [1] (setting [5]) and in assay [2] (setting [6]) was < 2000 nM throughout.
Regarding `O=C1NCc2nc(-c3c(F)cccc3F)cc(Nc3ccc(N4CCCOCC4)cn3)c21` [Compound I-253, 4-((5-(1,4-oxazepan-4-yl)pyridin-2-yl)amino)-2-(2,6-difluoro-phenyl)-6,7-dihydro-5H-pyrrolo[3,4-b]pyridin-5-one], the Ki in assay [4] fell in the range of 10 to 100 nM. The EC50 in assay [1] (setting [5]) was < 2000 nM; in assay [2] (setting [6]), > 20000 nM.
As to `CC(C)N1CCN(c2ccc(Nc3cc(-c4c(F)cccc4F)nc4c3C(=O)NC4)nc2)CC1` [Compound I-256, 2-(2,6-difluorophenyl)-4-((5-(4-isopropylpiperazin-1-yl)pyridin-2-yl)amino)-6,7-dihydro-5H-pyrrolo[3,4-b]pyridin-5-one], the EC50 in assay [1] (setting [5]) and in assay [2] (setting [6]) was < 2000 nM each time.
As for `O=C1NCc2nc(-c3c(F)cccc3F)cc(Nc3ccc(C(=O)N4CCCCC4)cc3)c21` [Compound I-257, 2-(2,6-difluorophenyl)-4-((4-(piperidine-1-carbonyl)phenyl)-amino)-6,7-dihydro-5H-pyrrolo[3,4-b]pyridin-5-one], the Ki in assay [4] lay in the range of 10 to 100 nM. In addition, the figures for the EC50 in assay [1] (setting [5]) and in assay [2] (setting [6]) were < 2000 nM and 2000 to 20000 nM, respectively.
With `CCNC(=O)c1ccc(Nc2cc(-c3c(F)cccc3F)nc3c2C(=O)NC3)cn1` [Compound I-260, 5-((2-(2,6-difluorophenyl)-5-oxo-6,7-dihydro-5H-pyrrolo[3,4-b]pyridin-4-yl)amino)-N-ethylpicolinamide], the inhibition constant Ki in assay [4] was in the range of 100 to 1000 nM. For the same compound, the EC50 is < 2000 nM in assay [1] (setting [5]) and > 20000 nM in assay [2] (setting [6]).
The matching figures for `O=C1NCc2nc(-c3c(F)cccc3F)cc(Nc3ccc(N4CCN(CCC(F)(F)F)CC4)cn3)c21` [Compound I-262, 2-(2,6-difluorophenyl)-4-((5-(4-(3,3,3-trifluoropropyl)piperazin-1-yl)pyridin-2-yl)amino)-6,7-dihydro-5H-pyrrolo[3,4-b]pyridin-5-one]: 10 to 100 nM, < 2000 nM and < 2000 nM.
For `C[C@@H]1CCC[C@@H](C)N1c1ccc(Nc2cc(-c3c(F)cccc3F)nc3c2C(=O)NC3)nc1` [Compound I-265, 2-(2,6-difluorophenyl)-4-((5-((2R,6R)-2,6-dimethylpiperidin-1-yl)pyridin-2-yl)amino)-6,7-dihydro-5H-pyrrolo[3,4-b]pyridin-5-one], the Ki in assay [4] lay within 10 to 100 nM. Also, the values for the EC50 in assay [1] (setting [5]) and in assay [2] (setting [6]) were < 2000 nM and 2000 to 20000 nM, respectively.
Regarding `CC1(C)CCC(=O)N1c1ccc(Nc2cc(-c3c(F)cccc3F)nc3c2C(=O)NC3)nc1` [Compound I-272, 2-(2,6-difluorophenyl)-4-((5-(2,2-dimethyl-5-oxopyrrolidin-1-yl)pyridin-2-yl)amino)-6,7-dihydro-5H-pyrrolo[3,4-b]pyridin-5-one], the EC50 in assay [1] (setting [5]) and in assay [2] (setting [6]) was < 2000 nM each time.
Take `CC1(C)OCCN(c2ccc(Nc3cc(-c4c(F)cccc4F)nc4c3C(=O)NC4)nc2)C1=O` [Compound I-273, 4-(6-((2-(2,6-difluorophenyl)-5-oxo-6,7-dihydro-5H-pyrrolo[3,4-b]pyridin-4-yl)amino)pyridin-3-yl)-2,2-dimethylmorpholin-3-one]: in assay [4], the Ki lay in the range of 10 to 100 nM. Further, the EC50 in assay [1] (setting [5]) and in assay [2] (setting [6]) was < 2000 nM throughout.
